Assay results from patent publication US20150166476A1, “METHODS FOR TREATING NEURODEGENERATIVE DISEASES ASSOCIATED WITH AGGREGATION OF AMYLOID-BETA” (priority 2013, published 2015).
Entries after “also recorded” stand apart in the source; their conditions may differ.

Tests used:
Aβ1-40 [1] = target: T1, Aβ1-40 (Homo sapiens, UniProt P05067); assay: Free radical assay (DCFH-DA), cell free; assay type: biochemical; conditions: 25 μM Aβ1-40, versus Aβ1-40 alone (FIG. 4)
T1 construct: Aβ1-40 peptide was synthesized in a solid-phase synthesizer; made in house; host or cells: chemical solid-phase peptide synthesis (no expression host)
T1 sequence (P05067 672-711 limits assumed): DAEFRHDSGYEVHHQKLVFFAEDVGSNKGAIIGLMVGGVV
Procedure: The level of free radicals (H2O2) induced by Aβ1-40 peptide in cell free conditions was analyzed using the dichlorofluorescein diacetate (DCFH-DA) assay. DCF-DA was deacetylated with 50% (v/v) 0.05 M NaOH for 30 min and neutralized (pH 7.5) to a final concentration of 200 μM as a stock solution. This stock solution was kept on ice in the dark until future use. The reactions were carried out in a 96-well plate (200 μL/well) containing 25 μM of Aβ1-40 diluted from the stock solution, 20 μM deacetylated DCF, 5 μM horseradish peroxidase, in Dulbecco's phosphate-buffered saline, pH 7.5. To determine the inhibitory effects of the compound of formula (I) on free radical formation, various concentrations of the compound of formula (I) were added and incubated at 37° C. Fluoresence readings were recorded on a microplate reader (FlexSTation 3, MD) with the excitation wavelength of 485 nm and the emission wavelength of 530 nm. The fluorescence intensity of DCF (H2O2 level) was measured every 6 hr and from 0 to 72 hr.

SH-SY5Y cells = assay: Cell viability assay (WST-1), Aβ1-40 induced cell death; assay type: cell-based, Human; conditions: for effect on Aβ1-40 induced cell death (cell viability): 25 μM Aβ1-40, 24 hr, compound at concentration below 100 ng/mL (FIG. 3)
Procedure: Human […] SH-SY5Y cells were cultured in minimum essential medium supplemented with 10% (v/v) heat-inactivated fetal bovine serum, 50% (v/v) F-12 nutrient mixture, and 1% (v/v) antibiotic mixture comprised of penicillin and streptomycin. Cells were kept at 37° C. in a humidified atmosphere of 5% CO2. SH-SY5Y cells were plated at a density of 1×10^5 viable cells per well in 96-well plates for future analysis.
The cell viability was determined by the WST-1 assay. […] of Aβ1-40 peptide stock solution were prepared by dissolving 1 mg Aβ1-40 in 1 mL trifluoroethanol and centrifuging to remove any insoluble particles. The peptide solution was then dried under nitrogen gas and re-dissolved in dimethyl sulfoxide, and incubated at 4° C. for 12 hr to provide the final peptide stock solution. For the viability assay, cells (1×10^5 cells/well in a 96-well microtiter plate) were treated with either 25 μM Aβ peptides only (as a positive control), or with the combination of 25 μM Aβ peptides and the compound of formula (I), in a concentration ranged from 1 to 1,000 ng/mL. The reaction was performed in a total volume of 200 μL per well for 24 hr at 37° C. in a humidified atmosphere containing 5% CO2 before cell viability was assayed. The WST-1 solution (10 μL) was added to each well, and the wells were incubated for another 4-5 hr at room temperature. The optical density was measured at 405 nm using a microplate reader.
In this example, the effects of compounds of formula (I) on Aβ1-40 induced cell toxicity were investigated by cell viability assay.

Aβ1-40 [2] = target: T1, Aβ1-40; assay: FT-IR spectroscopy of the secondary structure of Aβ1-40; assay type: biochemical; conditions: day 1 and day 5 (FIG. 2)
Procedure: The secondary structure of Aβ1-40 with or without the compound of formula (I) was investigated using FT-IR spectrometer (Jasco, FT-IR/4100) equipped with an attenuated reflection accessory to determine the conformation of Aβ1-40 during the aggregative process. 100 μL of 0.1 mM Aβ solution was coated on ZnSe crystals and dried overnight in a desiccators at room temperature. The spectra were recorded at 1,500 to 1,800 cm^−1 with a 1 cm^−1 interval. The peak was identified from the first derivation of the IR spectrum in the amide I region, and the secondary structure was analyzed using Original 6.0 software.
It is known that during the aggregation process, the conformation of Aβ1-40 is converted to either […]. […] Results are depicted in FIG. 2.

Aβ1-40 [3] = target: T1, Aβ1-40; assay: Peptide aggregation assay (Thioflavin-T fluorescence); assay type: biochemical; conditions: 25 μM Aβ1-40, 100 ng/mL compound, 37° C., day 5 (FIG. 1)
Procedure: Thioflavin-T (ThT) was used to monitor the aggregation state of Aβ1-40. 25 μM of Aβ1-40 was freshly diluted from the peptide stock solution in phosphate buffer (pH 7.4), for peptide aggregation assay. All samples containing a peptide concentration of 25 μM in the absence or presence of 100 ng/mL the compound of formula (I) and 3 μM ThT were incubated at 37° C. Samples containing either Aβ peptide only (control), or Aβ with the compound of formula (I), taking daily from day 0 to day 7, were used to measure the ThT sensitivity. The fluorescence measurement was performed on a microplate reader (FlexSTation 3, MD), with excitation and emission wavelength respectively set at 440 nm and 485 nm.
In this example, the effects of the compound of formula (I) on the aggregation of Aβ1-40 were investigated using the Th-T fluorescence assay described above in the Material and Methods section. Results are depicted in FIG. 1.

| SMILES | Aβ1-40 induced free radical levels (DCF fluorescence intensity) (Aβ1-40 [1]) | effect on Aβ1-40 induced cell death (cell viability) (SH-SY5Y cells) | conformation of Aβ1-40 (FT-IR, 1650 cm^−1 random coil vs 1625 cm^−1 β-sheet) (Aβ1-40 [2]) | effect on the aggregation of Aβ1-40 (Th-T fluorescence intensity) (Aβ1-40 [3]) | cell survival rate (SH-SY5Y cells; 25 μM Aβ1-40, 1 ng/mL compound) [%] | cell survival rate (SH-SY5Y cells; 25 μM Aβ1-40, 100 ng/mL compound) [%] | cell survival rate (SH-SY5Y cells; 25 μM Aβ1-40, 1,000 ng/mL compound) [%] |
| --- | --- | --- | --- | --- | --- | --- | --- |
| CC1=C(SCCO)C(=O)c2ccccc2C1=O [VK3-1] | resulted even more free radicals as compared with the control | smaller effects | converted to β-sheet structure | capable of enhancing the aggregation of Aβ1-40 |  |  |  |
| CC1=C(SCCCO)C(=O)c2ccccc2C1=O [VK3-2] | resulted even more free radicals as compared with the control | smaller effects | remained mostly in random coil conformation | capable of preventing Aβ1-40 from aggregation |  |  |  |
| CC1=C(SCCCCO)C(=O)c2ccccc2C1=O [VK3-3] | resulted even more free radicals as compared with the control | smaller effects | converted to β-sheet structure |  |  |  |  |
| CC1=C(SCCCCCCO)C(=O)c2ccccc2C1=O [VK3-4] |  | smaller effects |  | capable of enhancing the aggregation of Aβ1-40 |  |  |  |
| CC1=C(SCCCCCCCCCCCO)C(=O)c2ccccc2C1=O [VK3-5] | effectively inhibited | smaller effects | converted to β-sheet structure | capable of enhancing the aggregation of Aβ1-40 |  |  |  |
| CC1=C(SCCC(=O)O)C(=O)c2ccccc2C1=O [VK3-6] |  |  | remained mostly in random coil conformation | capable of preventing Aβ1-40 from aggregation; also recorded: most potent |  |  |  |
| CC1=C(SCC(C)O)C(=O)c2ccccc2C1=O (centres unmarked) [VK3-8] | resulted even more free radicals as compared with the control | smaller effects | remained mostly in random coil conformation | capable of preventing Aβ1-40 from aggregation |  |  |  |
| CC1=C(SCC(O)CO)C(=O)c2ccccc2C1=O (centres unmarked) [VK3-9] | effectively inhibited | exhibited the ability of preventing Aβ1-40 induced cell death | remained mostly in random coil conformation | capable of preventing Aβ1-40 from aggregation; also recorded: most potent | 50 | 88 | 92 |
| O=C1C=C(SCCO)C(=O)c2ccccc21 [VK3-199] | resulted even more free radicals as compared with the control | smaller effects | remained mostly in random coil conformation | capable of preventing Aβ1-40 from aggregation |  |  |  |
| CC1=C(O)C(=O)c2ccccc2C1=O [VK3-221] |  | smaller effects | remained mostly in random coil conformation | capable of preventing Aβ1-40 from aggregation |  |  |  |
| CC1=C(NCCN2CCOCC2)C(=O)c2ccccc2C1=O [VK3-224] |  | no difference from that of the control | remained mostly in random coil conformation | capable of preventing Aβ1-40 from aggregation |  |  |  |
| O=C1C(SCCO)=C(SCCO)C(=O)c2ccccc21 [VK3-231] | resulted even more free radicals as compared with the control | smaller effects |  |  |  |  |  |
| O=C1C(SCC(O)CO)=C(SCC(O)CO)C(=O)c2ccccc21 (centres unmarked) [VK3-232] |  | no difference from that of the control |  |  |  |  |  |
| O=C1C(SCCCCCCO)=C(SCCCCCCO)C(=O)c2ccccc21 [VK3-233-2d] | resulted even more free radicals as compared with the control | no difference from that of the control | converted to β-sheet structure | capable of enhancing the aggregation of Aβ1-40 |  |  |  |
